# Assay results from ChEMBL document CHEMBL1157049, “Synthesis and study of some new 1,3-isoindoledione derivatives as potential antibacterial agents” (2010).
# How the values were obtained:
# Escherichia coli = assay: Antimicrobial activity Escherichia coli at 2 mg/mL after 24 hrs by agar diffusion technique; assay type: functional; conditions: read-out: DIZ
# Bacillus thuringiensis = assay: Antimicrobial activity Bacillus thuringiensis at 2 mg/mL after 24 hrs by agar diffusion technique; assay type: functional; conditions: read-out: DIZ
structure (smiles),measurement,setting,value
O=C1C2C3c4ccccc4C(c4ccccc43)C2C(=O)N1c1ccccc1S (stereo not drawn),zone of inhibition at 2000 µg/mL,Escherichia coli,16 mm
same,zone of inhibition at 2000 µg/mL,Bacillus thuringiensis,18 mm
O=C1C2C3c4ccccc4C(c4ccccc43)C2C(=O)N1c1ccc(/N=N/c2ccccc2)cc1 (stereo not drawn),zone of inhibition at 2000 µg/mL,Escherichia coli,14 mm
same,zone of inhibition at 2000 µg/mL,Bacillus thuringiensis,13 mm
Cc1ccc(/N=N/c2ccc(N3C(=O)C4C5c6ccccc6C(c6ccccc65)C4C3=O)cc2)cc1 (stereo not drawn),zone of inhibition at 2000 µg/mL,Escherichia coli,14 mm
same,zone of inhibition at 2000 µg/mL,Bacillus thuringiensis,11 mm
CC(=O)c1ccc(N2C(=O)C3C4c5ccccc5C(c5ccccc54)C3C2=O)cc1 (stereo not drawn),zone of inhibition at 2000 µg/mL,Escherichia coli,12 mm
same,zone of inhibition at 2000 µg/mL,Bacillus thuringiensis,15 mm
O=C1C2C3c4ccccc4C(c4ccccc43)C2C(=O)N1c1ccccc1O (stereo not drawn),zone of inhibition at 2000 µg/mL,Escherichia coli,16 mm
same,zone of inhibition at 2000 µg/mL,Bacillus thuringiensis,17 mm
O=C1C2C3c4ccccc4C(c4ccccc43)C2C(=O)N1c1ccccc1SSc1ccccc1N1C(=O)C2C3c4ccccc4C(c4ccccc43)C2C1=O (stereo not drawn),zone of inhibition at 2000 µg/mL,Escherichia coli,17 mm
same,zone of inhibition at 2000 µg/mL,Bacillus thuringiensis,17 mm
Cc1ccc2nc(N3C(=O)C4C5c6ccccc6C(c6ccccc65)C4C3=O)sc2c1 (stereo not drawn),zone of inhibition at 2000 µg/mL,Escherichia coli,29 mm
same,zone of inhibition at 2000 µg/mL,Bacillus thuringiensis,26 mm
O=C1C2C3c4ccccc4C(c4ccccc43)C2C(=O)N1C(CO)(CO)CO (stereo not drawn),zone of inhibition at 2000 µg/mL,Escherichia coli,14 mm
same,zone of inhibition at 2000 µg/mL,Bacillus thuringiensis,15 mm
CCOC(=O)c1c(N2C(=O)C3C4c5ccccc5C(c5ccccc54)C3C2=O)sc2c1CCCC2 (stereo not drawn),zone of inhibition at 2000 µg/mL,Escherichia coli,14 mm
same,zone of inhibition at 2000 µg/mL,Bacillus thuringiensis,15 mm
O=C1/C(=N\c2ccccc2N2C(=O)C3C4c5ccccc5C(c5ccccc54)C3C2=O)C=C(Nc2ccccc2N2C(=O)C3C4c5ccccc5C(c5ccccc54)C3C2=O)c2ccccc21 (stereo not drawn),zone of inhibition at 2000 µg/mL,Escherichia coli,17 mm
same,zone of inhibition at 2000 µg/mL,Bacillus thuringiensis,17 mm
O=C(N[C@H](CO)[C@H](O)c1ccc([N+](=O)[O-])cc1)C(Cl)Cl [CHLORAMPHENICOL],zone of inhibition at 2000 µg/mL,Escherichia coli,20 mm
same,zone of inhibition at 2000 µg/mL,Bacillus thuringiensis,23 mm
O=C(c1ccc(N2C(=O)C3C4c5ccccc5C(c5ccccc54)C3C2=O)cc1)c1nc2ccccc2[nH]1 (stereo not drawn),zone of inhibition at 2000 µg/mL,Escherichia coli,23 mm
same,zone of inhibition at 2000 µg/mL,Bacillus thuringiensis,20 mm
O=C1C2C3c4ccccc4C(c4ccccc43)C2C(=O)N1c1nc[nH]n1 (stereo not drawn),zone of inhibition at 2000 µg/mL,Escherichia coli,15 mm
same,zone of inhibition at 2000 µg/mL,Bacillus thuringiensis,17 mm
O=C(c1ccc(N2C(=O)C3C4c5ccccc5C(c5ccccc54)C3C2=O)cc1)C(Br)Br (stereo not drawn),zone of inhibition at 2000 µg/mL,Escherichia coli,14 mm
same,zone of inhibition at 2000 µg/mL,Bacillus thuringiensis,17 mm
CC(=O)Nc1ccccc1N1C(=O)C2C3c4ccccc4C(c4ccccc43)C2C1=O (stereo not drawn),zone of inhibition at 2000 µg/mL,Escherichia coli,16 mm
same,zone of inhibition at 2000 µg/mL,Bacillus thuringiensis,18 mm
COC(=O)n1c(C2C3c4ccccc4C(c4ccccc43)C2C(=O)O)nc2ccccc21 (stereo not drawn),zone of inhibition at 2000 µg/mL,Escherichia coli,13 mm
same,zone of inhibition at 2000 µg/mL,Bacillus thuringiensis,17 mm
Nc1ccccc1N1C(=O)C2C3c4ccccc4C(c4ccccc43)C2C1=O (stereo not drawn),zone of inhibition at 2000 µg/mL,Escherichia coli,12 mm
same,zone of inhibition at 2000 µg/mL,Bacillus thuringiensis,17 mm
CC1(C)S[C@@H]2[C@H](NC(=O)[C@H](N)c3ccccc3)C(=O)N2[C@H]1C(=O)O [AMPICILLIN],zone of inhibition at 2000 µg/mL,Escherichia coli,19 mm
same,zone of inhibition at 2000 µg/mL,Bacillus thuringiensis,18 mm
Cc1ccc(S(=O)(=O)Oc2ccccc2N2C(=O)C3C4c5ccccc5C(c5ccccc54)C3C2=O)cc1 (stereo not drawn),zone of inhibition at 2000 µg/mL,Escherichia coli,18 mm
same,zone of inhibition at 2000 µg/mL,Bacillus thuringiensis,15 mm
